We go through nine molecules from ChEMBL document CHEMBL1136543, “3,4-disubstituted azetidinones as selective inhibitors of the cysteine protease cathepsin K. Exploring P2 elements for selectivity” (Bioorg Med Chem Lett, 2003).

Assay [1] deals with T1, Procathepsin L (Homo sapiens, UniProt P07711). Put plainly: Inhibitory activity was measured against Cathepsin L.
Target sequence in this assay (P07711 whole entry): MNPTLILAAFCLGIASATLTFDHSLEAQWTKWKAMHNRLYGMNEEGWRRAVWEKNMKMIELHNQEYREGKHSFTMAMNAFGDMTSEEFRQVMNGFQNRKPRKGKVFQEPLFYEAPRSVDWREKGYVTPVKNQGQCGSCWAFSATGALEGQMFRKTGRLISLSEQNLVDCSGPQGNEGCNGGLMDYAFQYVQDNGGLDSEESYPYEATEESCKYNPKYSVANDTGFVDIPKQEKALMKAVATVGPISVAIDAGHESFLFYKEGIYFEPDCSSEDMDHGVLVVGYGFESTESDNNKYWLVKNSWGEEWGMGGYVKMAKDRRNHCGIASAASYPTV
Assay [2] has as its target T1, Procathepsin L. Put plainly: Selectivity ratio between Cathepsin L and Cathepsin K.
Target sequence in this assay (P07711 114-333 limits assumed): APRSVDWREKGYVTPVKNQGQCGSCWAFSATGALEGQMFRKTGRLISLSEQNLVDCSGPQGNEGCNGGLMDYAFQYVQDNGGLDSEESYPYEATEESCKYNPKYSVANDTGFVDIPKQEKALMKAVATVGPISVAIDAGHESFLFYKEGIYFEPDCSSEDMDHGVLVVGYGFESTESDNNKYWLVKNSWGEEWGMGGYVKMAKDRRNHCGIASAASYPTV
Assay [3] has as its target T2, Cathepsin S (Homo sapiens, UniProt P25774). Put plainly: Inhibitory activity was measured against Cathepsin S.
Target sequence in this assay (P25774 whole entry): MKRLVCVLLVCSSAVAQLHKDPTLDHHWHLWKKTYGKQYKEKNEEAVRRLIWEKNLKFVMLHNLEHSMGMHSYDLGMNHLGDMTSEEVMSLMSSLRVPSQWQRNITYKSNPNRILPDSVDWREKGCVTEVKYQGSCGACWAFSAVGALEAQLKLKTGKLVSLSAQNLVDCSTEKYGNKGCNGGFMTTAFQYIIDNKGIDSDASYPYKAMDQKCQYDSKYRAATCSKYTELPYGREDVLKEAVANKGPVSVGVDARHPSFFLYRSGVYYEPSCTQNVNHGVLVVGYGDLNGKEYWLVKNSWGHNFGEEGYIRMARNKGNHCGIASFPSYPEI
Assay [4] concerns the target T3, Cathepsin K (Homo sapiens, UniProt P43235).
T3 sequence (P43235 whole entry): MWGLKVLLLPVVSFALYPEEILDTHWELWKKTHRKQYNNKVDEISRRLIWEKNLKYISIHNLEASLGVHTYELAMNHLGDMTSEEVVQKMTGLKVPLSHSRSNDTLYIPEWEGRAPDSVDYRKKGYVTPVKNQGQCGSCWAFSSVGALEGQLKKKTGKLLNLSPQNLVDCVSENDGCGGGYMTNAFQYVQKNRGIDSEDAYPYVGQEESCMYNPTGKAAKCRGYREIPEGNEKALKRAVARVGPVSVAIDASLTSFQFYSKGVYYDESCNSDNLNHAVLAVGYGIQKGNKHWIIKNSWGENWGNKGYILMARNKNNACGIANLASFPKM
Description: Inhibitory activity was measured against Cathepsin K.

Assay [5] addresses T4, Cathepsin B (Homo sapiens, UniProt P07858). Put plainly: Selectivity ratio between Cathepsin B and Cathepsin K.
For assay [6], the target named is T2, Cathepsin S. Description: Selectivity ratio between Cathepsin S and Cathepsin K.
Target sequence in this assay (P25774 115-331 limits assumed): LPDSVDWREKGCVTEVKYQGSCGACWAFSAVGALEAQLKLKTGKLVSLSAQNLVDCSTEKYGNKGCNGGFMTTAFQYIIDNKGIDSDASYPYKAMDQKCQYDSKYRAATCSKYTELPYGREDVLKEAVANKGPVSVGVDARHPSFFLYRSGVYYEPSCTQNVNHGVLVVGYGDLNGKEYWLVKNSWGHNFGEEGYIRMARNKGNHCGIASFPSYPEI
In assay [7] the target is T4, Cathepsin B. Description: Inhibitory activity was measured against Cathepsin B.

`CC(=O)O[C@@H]1NC(=O)[C@H]1NC(=O)C1CCCN1C(=O)OCc1ccccc1` (stereo partly drawn): the Ki was more than 150 µM in assay [1], more than 150 µM in assay [3], 0.95 µM in assay [4] and 120 µM in assay [7]. Also, the Ratio in assay [2] is more than 160; in assay [5], 120; in assay [6], more than 160.

Consider `CC(=O)O[C@@H]1NC(=O)[C@H]1NC(=O)C1(NC(=O)OCc2ccccc2)CCCCC1`, for which the Ki was 6.8 µM in assay [1], 0.95 µM in assay [3], 0.0057 µM in assay [4] and 4.3 µM in assay [7]. The Ratio was determined as 1190 in assay [2], 750 in assay [5] and 160 in assay [6].

For the molecule `CC(=O)O[C@@H]1NC(=O)[C@H]1NC(=O)C1(NC(=O)OCc2ccccc2)CCCC1`, the Ki in assay [1] came to 140 µM; in assay [3], 28 µM; in assay [4], 0.16 µM; in assay [7], 7.7 µM. For the same molecule, the Ratio in assay [2] was 870; in assay [5], 48; in assay [6] it was 175.

Regarding `CC(=O)O[C@@H]1NC(=O)[C@H]1NC(=O)C1CCCCN1C(=O)OCc1ccccc1` (stereo partly drawn), the Ki in assay [1] was more than 150 µM; in assay [3] it was 20 µM; in assay [4] it was 0.2 µM; in assay [7], 65 µM. In addition, the Ratio was more than 750 in assay [2], 320 in assay [5] and 100 in assay [6].

Consider `O=C(NC1(C(=O)N[C@@H]2C(=O)N[C@H]2Oc2ccccc2)CCCCC1)OCc1ccccc1`, for which the Ki in assay [1] was 3.4 µM; in assay [3], 33 µM; in assay [4], 0.38 µM; in assay [7], 140 µM. Also, the Ratio in assay [2] was found to be 9; in assay [5], 368; in assay [6], 87.

As for `CC(=O)O[C@@H]1NC(=O)[C@H]1NC(=O)[C@@H]1CCC[C@@H]1NC(=O)OCc1ccccc1`, the Ki in assay [1] was more than 150 µM; in assay [3] it was 11 µM; in assay [4] it was 2.1 µM; in assay [7] it was 52 µM. The Ratio in assay [2] is more than 70; in assay [5], 24; in assay [6] it was 5.

As for `CC(=O)O[C@@H]1NC(=O)[C@H]1NC(=O)[C@@H]1CCCC[C@@H]1NC(=O)OCc1ccccc1`, the Ki came to 3.7 µM in assay [1], 0.13 µM in assay [3], 0.0088 µM in assay [4] and 1.6 µM in assay [7]. Moreover, the values for the Ratio in assay [2], in assay [5] and in assay [6] were 420, 180 and 15, respectively.

In the case of `CC(=O)O[C@@H]1NC(=O)[C@H]1NC(=O)[C@H](CC(C)C)NC(=O)OCc1ccccc1`, the Ki in assay [1] amounted to 0.088 µM; in assay [3], 0.0092 µM; in assay [4] it was 0.0022 µM; in assay [7], 2.1 µM. Moreover, the results for the Ratio in assay [2], in assay [5] and in assay [6] were 40, 950 and 4, respectively.

Consider `O=C(NC1(C(=O)N[C@@H]2C(=O)N[C@@H]2Oc2ccccc2)CCCCC1)OCc1ccccc1`, for which the Ki was 16 µM in assay [1], 53 µM in assay [3], 3.6 µM in assay [4] and more than 150 µM in assay [7]. Further, the Ratio in assay [2] is 4; in assay [5], more than 40; in assay [6] it was 15.
